US20070118920A1, “Herbicide-resistant sunflower plants, polynucleotides encoding herbicide-resistant acetohydroxyacid synthase large subunit proteins, and methods of use” (priority 2005, published 2007)

Assays:
[1] = tested on: RHA266 (wild-type) sunflower plants; assay: Field trial, tolerance to sulfonylurea herbicides (% injury); format: in vivo, Helianthus annuus; settings: six-leaf stage
Source text: (§1) To evaluate the resistance of MUT9 sunflower plants to sulfonylurea herbicides, RHA266 (wild-type) and MUT9 sunflower plants were planted outdoors in Balcarce, Argentina during the growing season in an RCBD field trial with two replications to evaluate the tolerance of homozygous M5 MUT9 plants to the sulfonylurea herbicides tribenuron methyl (TBM) and thifensulfuron (TFS) at 1× and 2× rates applied at the six-leaf stage. Due to the lack of MUT9 seed, one herbicide was sprayed in each replication. The 1× rates for TBM and TFS are 13.15 g a.i./ha and 4.4 g a.i./ha, respectively.

[2] = tested on: homozygous M5 MUT9 sunflower plants; assay: as above; format: in vivo, Helianthus annuus; settings: six-leaf stage
Source text: as §1

[3] = rate 1X (TBM 13.15 g a.i./ha, TFS 4.4 g a.i./ha)
[4] = rate 2X (1X: TBM 13.15 g a.i./ha, TFS 4.4 g a.i./ha)

Structure (SMILES) | % Injury [1, 3] | % Injury [1, 4] | % Injury [2, 3] | % Injury [2, 4]
COc1nc(C)nc(NC(=O)NS(=O)(=O)c2ccsc2C(=O)O)n1 [TFS, thifensulfuron] | 75% | 75% | 75% | 75%
COC(=O)c1ccccc1S(=O)(=O)NC(=O)N(C)c1nc(C)nc(OC)n1 [TBM, tribenuron methyl] | – | 45% | 75% | 75%
